Among the data in publication PMC13083723 (Patterns, 2026) are PL_Result and activation values, retold here.

SMILES strings stand for the structures. Residues, ends and D or L forms follow the SMILES beside them.

One experiment concerns Vero-E6 cells. Put plainly: cells. It counts as cell-based.
Conditions: not given
Turning to `C[C@@H](O)[C@H](N)C(=O)N1CCC[C@H]1C(=O)N1CCC[C@H]1C(=O)N[C@H](C(N)=O)[C@@H](C)O` [SPE_K02206208] (H-TPPT-NH2), the PL_Result was -5.35.

The experiment is the same for the next values; noted with them: Chlorocebus sabaeus, Vero C1008, 24 h, read-out: PL_Result.
With `Cc1cn(C2CC(N=[N+]=[N-])C(CO)O2)c(=O)[nH]c1=O` (stereo not drawn) [SPE_A33692381], the activation at 10 µM is -1.92%. Same read-out and setting: to `C[C@H](O)[C@H](O)[C@H]1CNc2[nH]c(N)nc(=O)c2N1` [SPE_K36859431] belongs -1.35%; to `OCCN1C[C@@H](O)[C@@H](O)C(O)C1CO` (stereo partly drawn) [SPE_A63310107], -7.51%; to `CC(C)c1cc(C(=O)N2Cc3ccc(CN4CCN(C)CC4)cc3C2)c(O)cc1O` [SPE_K58435339], 0.714%. Same read-out and setting: to `O=S(=O)(c1cccc2c(O)nccc12)N1CCCNCC1` [SPE_K77793136] belongs -5.16%; to `CC(C)C[C@H](NC(=O)CNC(=O)c1cc(Cl)ccc1Cl)B1OC(=O)C(CC(=O)O)(CC(=O)O)O1` [SPE_K15203492], -7.87%; to `Nc1ccn([C@H]2CC[C@@H](CO)O2)c(=O)n1` [SPE_K85925969], 2.75%. Turning to `O=C(O)C(=O)c1cn(Cc2ccccc2)c2ccc(-c3ccc(OC(F)(F)F)cc3)cc12` [SPE_K30882994], the activation at 10 µM is 1.29%. Regarding `Cc1cc(NCCO)nc(-c2ccc(Br)cc2)n1` [SPE_K07656463], the activation at 10 µM is -1.9%. Regarding `COCC(=O)O[C@]1(CCN(C)CCCc2nc3ccccc3[nH]2)CCc2cc(F)ccc2[C@@H]1C(C)C` [SPE_K09549677], the activation at 10 µM worked out at 97.4%. Take `Cc1ccsc1/C=C/C1=NCCCN1C` [SPE_K71454870]: the activation at 10 µM is -13.8%. On the same count and under the same terms, for `CC(=O)O[C@H]1C[C@@]2(C)[C@@H](C[C@@H](O)C3[C@]2(C)CC[C@H]2[C@H](C)[C@H](O)CC[C@]32C)/C1=C(/CCC=C(C)C)C(=O)O` (stereo partly drawn) [SPE_A06935312] the value was -11.6%; for `O=C(CC(c1ccccc1)c1ccccc1)N1CCN(C(c2ccccc2)c2ccccc2)CC1` [SPE_K16037980], -13.7%; for `C[N+]1(C)CCc2cc3c(cc2[C@H]1[C@@H]1OC(=O)c2c1ccc1c2OCO1)OCO3` [SPE_A57798559], -11.7%.

As to `c1ccc2oc(C3=NCCN3)cc2c1` [SPE_K22745370], the activation at 10 µM was -9.99%. On the same count and under the same terms, to `COc1ccc(CNC(=O)c2sc3nc(C)cc(C)c3c2N)cc1` [SPE_K87727457] belongs -11.5%; to `CCN(CC)CCOCCOC(=O)C1(c2ccccc2)CCCC1` [SPE_K06181161], 11.3%.

With `O=S(=O)(NCC1CC1)c1ccc(Nc2nccc(N3CCCc4cc(O)ccc43)n2)cc1` [SPE_K94659840], the activation at 10 µM turned out to be 3.48%. Consider `COc1ccc(-c2cc(=O)c3c(OC)c(OC)c(OC)c(OC)c3o2)cc1OC` [SPE_K06753942], for which the activation at 10 µM was found to be 17.9%. As to `O=[N+]([O-])c1ncc[nH]1` [SPE_K26824830], the activation at 10 µM is -1.75%. The same measure, in the same setting: for `OC(c1ccccc1)C1CCN(CCc2ccccc2)CC1` (stereo not drawn) [SPE_A62057054] the value was 3.01%.

For the compound `CN1c2ccccc2C(=O)N2CCc3c([nH]c4ccccc34)C21` (stereo not drawn) [SPE_A68631409], the activation at 10 µM is -12.1%.

With `Cc1c(C(=O)NCc2cccnc2)nn(-c2ccc(Cl)cc2Cl)c1-c1ccc(Cl)cc1` [SPE_K71315565], the activation at 10 µM is 4.2%. For `C[C@@H]1CN(CC(=O)Nc2ccc3c(c2)Cc2cccc(-c4cc(=O)cc(N5CCOCC5)o4)c2S3)C[C@H](C)O1` [SPE_K36016295], the activation at 10 µM turned out to be 15.1%.

`COc1cc(Nc2nc3ccccc3nc2NS(=O)(=O)c2ccc(NC(=O)c3ccc(C)c(OC)c3)cc2)cc(OC)c1` [SPE_K75308783]: the activation at 10 µM was -7.72%. The same measure, in the same setting: for `Cc1c(N(C)C)c(=O)n(-c2ccccc2)n1C` [SPE_K12568846] the value was -3.72%; for `O=C1Nc2cc(Cl)c(Cl)cc2N2CCNCC12` (stereo not drawn) [SPE_A62021152], -10.8%; for `COc1cc(O)c(C(=O)c2ccccc2)cc1S(=O)(=O)O` [SPE_K38602774], -11.2%. Regarding `Cc1ccc2nc(N)nc(O)c2c1Sc1ccncc1` [SPE_K36636143], the activation at 10 µM amounted to 2.73%. In the case of `NCCc1ccc(O)c(O)c1` [SPE_K43887077], the activation at 10 µM was -4.01%. The same measure, in the same setting: for `COc1ccc2cc3[n+](cc2c1OC)CCc1cc2c(cc1-3)OCO2` [SPE_K14796088] the value was -2.9%; for `CC(C)C(N)=O` [SPE_K54057105], -7.86%. On the same count and under the same terms, to `CNC(=O)c1cc2c(cn1)[nH]c1ccccc12` [SPE_K61951118] belongs -1.18%; to `CCN(CC)C(=S)SSC(=S)N(CC)CC` [SPE_K32744045], 5.11%.

For `O=C1C(Cl)=C(N2CCOCC2)C(=O)N1c1ccc(Cl)c(Cl)c1` [SPE_K79555887], the activation at 10 µM came to 5.74%.

On to `O=c1c(O)c(-c2cc(O)c(O)c(O)c2)oc2cc(O)cc(O)c12` [SPE_K43149758], for which the activation at 10 µM is -18.6%. On to `CC(O)c1cc(C(=O)N[C@@H](C)Cn2ccc(-c3ccc(C#N)c(Cl)c3)n2)n[nH]1` (stereo partly drawn) [SPE_A01259528], for which the activation at 10 µM is -15.4%. As to `CCCCC/C=C\C/C=C\CCCCCCCC(=O)NCCCC(=O)O` [SPE_K46254452], the activation at 10 µM worked out at 0.426%.

As for `COc1ccccc1C(=O)Nc1cccc(NC(=O)c2cccc(C)c2)c1` [SPE_K02160913], the activation at 10 µM is -4.26%. Still for that read-out and setting: for `O=C(Nc1ccccc1C(=O)Nc1ccc(CCO)cc1)c1ccc([N+](=O)[O-])cc1` [SPE_K81053848] the value was -6.64%. Consider `COc1cc([S+](C)[O-])ccc1-c1nc2ncccc2[nH]1` (stereo not drawn) [SPE_A22081593], for which the activation at 10 µM is -4.2%. Take `Nc1nnc2[nH]c3ccccc3nc1-2` [SPE_K87932577]: the activation at 10 µM is -2.99%. On to `CN(C)C/C=C/C(=O)Nc1ccc(C(=O)Nc2cccc(Nc3ncc(Cl)c(-c4c[nH]c5ccccc45)n3)c2)cc1` [SPE_K66401437], for which the activation at 10 µM amounted to 6.67%. As to `CCOC(=O)Nc1ccc(NCc2ccc(F)cc2)cc1N` [SPE_K89917372], the activation at 10 µM is -6.22%. For the compound `O=C(O)CC1CC(c2ccccc2)=NO1` (stereo not drawn) [SPE_A32269193], the activation at 10 µM was -19.4%.

For the compound `COc1ncc2cc(C(=O)Nc3cc(C(=O)NCc4cccc(Cl)c4)ccc3Cl)c(=O)[nH]c2n1` [SPE_K89517477], the activation at 10 µM is -0.459%.

For `Cc1ccc(C)c(C(O)CNC(C)C)c1` (stereo not drawn) [SPE_A98083480], the activation at 10 µM was determined as 3.82%.

Take `O=C1N=C2NN=CC2C(=O)N1` (stereo not drawn) [SPE_K31841515]: the activation at 10 µM worked out at 2.22%. On the same count and under the same terms, for `C=CCc1cc(OC)c(O)c(C(=O)NCCO)c1` [SPE_K60102752] the value was -3.89%; for `COc1ccc(Nc2ncnc3ccc(OC)cc23)cc1` [SPE_K87696786], -2.62%; for `N#Cc1ccc(NCCNCC(=O)N2CCC[C@H]2C#N)nc1` [SPE_K77396579], -14.3%. As for `CC(=O)Oc1cc2c(s1)CCN(C(C(=O)C1CC1)c1ccccc1F)C2` (stereo not drawn) [SPE_A83029242], the activation at 10 µM is -4.76%.

Regarding `C[C@]12C=CC(=O)C=C1CC[C@@H]1[C@@H]2CC[C@]2(C)OC(=O)CC[C@@H]12` [SPE_K69636617], the activation at 10 µM is -2.05%. Still for that read-out and setting: to `O=C(NC[C@H](O)CN1CCc2ccccc2C1)c1cc(NC2COC2)ncn1` [SPE_K70446295] belongs -3.31%; to `CC(=O)NC1[C@@H](O)OC(CO)[C@@H](O)[C@H]1O` (stereo partly drawn) [SPE_A92872453], -7.39%.

In the case of `O=C(O)Cc1ccc(CCNS(=O)(=O)c2ccc(Cl)cc2)cc1` [SPE_K26813177], the activation at 10 µM was -0.423%. Turning to `O=C(O)CCCCN(CCc1ccccc1OCc1ccc(CCc2ccccc2)cc1)Cc1ccc(C(=O)O)cc1` [SPE_K73440166], the activation at 10 µM was determined as 2.18%. Still for that read-out and setting: to `CC(CCCCC(=O)Nc1ccc(C(F)(F)F)cc1)NCCc1c[nH]cn1` (stereo not drawn) [SPE_A66435872] belongs 38.2%. Consider `CCCCCCCCCCCCCCCCCCCCCCCCCCCCO` [SPE_K03083257], for which the activation at 10 µM was -15.2%.

Regarding `O=C(O)c1cc(O)c2c(c1)C(=O)c1cccc(O)c1C2=O` [SPE_K27335680], the activation at 10 µM was -8.5%. Still for that read-out and setting: for `Cc1coc2c1C(=O)C(=O)c1c-2ccc2c(C)cccc12` [SPE_K34073885] the value was 1.44%. In the case of `C=CCN1C[C@H](C)N([C@H](c2ccc(C(=O)N(CC)CC)cc2)c2cccc(OC)c2)C[C@H]1C` [SPE_K29546239], the activation at 10 µM was 1.37%. On to `CCOc1c2c(c(OCC)c3ccccc13)C(=O)N(c1ccc(CC(=O)NS(=O)(=O)c3ccccc3)cc1)C2` [SPE_K50005760], for which the activation at 10 µM is -9.22%.

As for `Cc1cccc2c1CC[C@H](CN1CCC(c3c(Cl)cccc3Cl)CC1)C[C@@H]2O` [SPE_K08333979], the activation at 10 µM was -2.39%. Take `Cn1c(=O)[nH]c2ncn(C)c2c1=O` [SPE_K24084088]: the activation at 10 µM is -5.64%. `CC(C)(C)OC(=O)N[C@H]1CCCCC/C=C\[C@@H]2C[C@@]2(C(=O)NS(=O)(=O)C2CC2)NC(=O)[C@@H]2C[C@@H](OC(=O)N3Cc4cccc(F)c4C3)CN2C1=O` [SPE_K08111240]: the activation at 10 µM is -7.46%. For `Cc1nnc(C(C)C)n1C1CC2CCC(C1)N2CC[C@H](NC(=O)C1CCC(F)(F)CC1)c1ccccc1` (stereo partly drawn) [SPE_A04352665], the activation at 10 µM is -15.3%. As for `O=c1c(-c2ccc(O)cc2)coc2cc(O)cc(O)c12` [SPE_K43797669], the activation at 10 µM worked out at 24.8%. Same read-out and setting: to `CCC(=O)c1ccc(OCC(O)CN2CCN(c3ccccc3)CC2)cc1` (stereo not drawn) [SPE_A28958257] belongs -1.6%. Same read-out and setting: to `Cc1nnc(C(=O)NC(C)(C)c2nc(C(=O)NCc3ccc(F)cc3)c(O)c(=O)n2C)o1` [SPE_K05658747] belongs -12.8%; to `COC(=O)c1ccccc1O` [SPE_K10103010], 2.4%.

As to `CC[C@]12CCCN3CCc4c(n(c5ccccc45)C(=O)C1)[C@@H]32` [SPE_K40227168], the activation at 10 µM is -8.29%.

Turning to `CC(C)(C)c1ccc(-c2nc3ccccc3[nH]2)cc1` [SPE_K73073971], the activation at 10 µM stood at 9.59%.

`Cc1nc(NC(=O)N2CCC[C@H]2C(N)=O)sc1-c1ccnc(C(C)(C)C(F)(F)F)c1` [SPE_K54997624]: the activation at 10 µM came out at 12.6%.
